Results taken from the supplement of paper PMC8671470.
± gives the standard deviation of the averaged measurements.

Legend:
Conditions in all cases: 72 h
BV-173 [1] = tested on: BV-173
Method in brief: (§1)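 In 384-well plates holding acoustically pre-printed compounds at five tenfold doses from 1 to 10,000 nM, in duplicate, fifteen myeloid leukaemia cell lines were grown in RPMI 1640 for 72 h at 37 °C with 5% CO2. Luminescent ATP viability was scaled between vehicle and a positive control at 10 µM. The IC50 was then taken from log-logistic dose–response fits with four parameters.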

HEL [2] = tested on: HEL
Method in brief: as §1

HL-60 [3] = tested on: HL-60
Method in brief: as §1

K-562 [4] = tested on: K-562
Method in brief: as §1

KCL-22 [5] = tested on: KCL-22
Method in brief: as §1

KG-1 = tested on: KG-1
Method in brief: as §1

KU-812 [6] = tested on: KU-812
Method in brief: as §1

LAMA-84 [7] = tested on: LAMA-84
Method in brief: as §1

ML-2 [8] = tested on: ML-2
Method in brief: as §1

MOLM-13 = tested on: MOLM-13
Method in brief: as §1

MV4-11 = tested on: MV4-11
Method in brief: as §1

Mono-Mac-6 [9] = tested on: Mono-Mac-6
Method in brief: as §1

NOMO-1 [10] = tested on: NOMO-1
Method in brief: as §1

SHI-1 [11] = tested on: SHI-1
Method in brief: as §1

THP-1 = tested on: THP-1
Method in brief: as §1

HL-60 [12] = assay: cell viability (% survival relative to DMSO control); higher = less cytotoxic
Method in brief: (§2)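 HL-60 cells in RPMI 1640 with 10% FBS were rescreened against the full library on 384-well plates at five tenfold concentrations, 1–10,000 nM, in duplicate. Each screen was run with DMSO or 100 nM of one of three metabolic inhibitors, for 72 h at 37 °C, 5% CO2. Viability was read by CellTiter-Glo and normalised to DMSO and 10 μM proteasome-inhibitor wells. Where given, area under the curve came from four-parameter log-logistic fits (drc, PharmacoGx).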

BV-173 [13] = assay: cell viability (% survival relative to DMSO control, bortezomib = 0%); higher = less cytotoxic
Method in brief: (§3)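 Percent survival is reported as the mean of duplicate wells. Cells from 10 AML and 5 CML lines were plated in 384-well plates containing compounds at 1, 10, 100, 1000 or 10000 nM and kept for 72 h at 37 °C in 5% CO2. Readout used CellTiter-Glo luminescence, scaled so that vehicle equals 100% and a 10 µM positive control equals 0%.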

HEL [14] = assay: as above
Method in brief: as §3

HL-60 [15] = assay: as above
Method in brief: as §3

K-562 [16] = assay: as above
Method in brief: as §3

KCL-22 [17] = assay: as above
Method in brief: as §3

KU-812 [18] = assay: as above
Method in brief: as §3

LAMA-84 [19] = assay: as above
Method in brief: as §3

ML-2 [20] = assay: as above
Method in brief: as §3

Mono-Mac-6 [21] = assay: as above
Method in brief: as §3

NOMO-1 [22] = assay: as above
Method in brief: as §3

SHI-1 [23] = assay: as above
Method in brief: as §3

HL-60 [24] = assay: area under dose-response curve (viability, 1 nM-10 uM) (fraction (0-1)); higher = more sensitive
Method in brief: as §2

## COc1ccc(CNC(=O)Nc2ncc([N+](=O)[O-])s2)cc1
BV-173 [1]
  IC50 (cell viability): > 10 µM
HEL [2]
  IC50 (cell viability): > 10 µM
HL-60 [3]
  IC50 (cell viability): > 10 µM
K-562 [4]
  IC50 (cell viability): > 10 µM
KCL-22 [5]
  IC50 (cell viability): > 10 µM
KG-1
  IC50 (cell viability): > 10 µM
KU-812 [6]
  IC50 (cell viability): > 10 µM
LAMA-84 [7]
  IC50 (cell viability): > 10 µM
ML-2 [8]
  IC50 (cell viability): > 10 µM
MOLM-13
  IC50 (cell viability): > 10 µM
MV4-11
  IC50 (cell viability): > 10 µM
Mono-Mac-6 [9]
  IC50 (cell viability): > 10 µM
NOMO-1 [10]
  IC50 (cell viability): > 10 µM
SHI-1 [11]
  IC50 (cell viability): > 10 µM
THP-1
  IC50 (cell viability): > 10 µM
HL-60 [12]; 0.001 µM, co-treatment: AZD3965 100 nM
  cell viability: 99.1 ± 14%
HL-60 [12]; 0.001 µM, co-treatment: DMSO vehicle
  cell viability: 103 ± 2.9%
HL-60 [12]; 0.001 µM, co-treatment: GSK2194069 100 nM
  cell viability: 89.7 ± 16%
HL-60 [12]; 0.001 µM, co-treatment: pictilisib 100 nM
  cell viability: 84 ± 31%
HL-60 [12]; 0.01 µM, co-treatment: AZD3965 100 nM
  cell viability: 97.6 ± 3.6%
HL-60 [12]; 0.01 µM, co-treatment: DMSO vehicle
  cell viability: 94.7 ± 4.3%
HL-60 [12]; 0.01 µM, co-treatment: GSK2194069 100 nM
  cell viability: 81 ± 3.1%
HL-60 [12]; 0.01 µM, co-treatment: pictilisib 100 nM
  cell viability: 103 ± 5.9%
HL-60 [12]; 0.1 µM, co-treatment: AZD3965 100 nM
  cell viability: 102 ± 4.4%
HL-60 [12]; 0.1 µM, co-treatment: DMSO vehicle
  cell viability: 99.35 ± 0.68%
HL-60 [12]; 0.1 µM, co-treatment: GSK2194069 100 nM
  cell viability: 106 ± 3.5%
HL-60 [12]; 0.1 µM, co-treatment: pictilisib 100 nM
  cell viability: 106 ± 3.8%
HL-60 [12]; 1 µM, co-treatment: AZD3965 100 nM
  cell viability: 91.4 ± 3.9%
HL-60 [12]; 1 µM, co-treatment: DMSO vehicle
  cell viability: 102 ± 1.5%
HL-60 [12]; 1 µM, co-treatment: GSK2194069 100 nM
  cell viability: 86.5 ± 5.7%
HL-60 [12]; 1 µM, co-treatment: pictilisib 100 nM
  cell viability: 96.3 ± 4.1%
HL-60 [12]; 10 µM, co-treatment: AZD3965 100 nM
  cell viability: 95.2 ± 1.6%
HL-60 [12]; 10 µM, co-treatment: DMSO vehicle
  cell viability: 107 ± 7.6%
HL-60 [12]; 10 µM, co-treatment: GSK2194069 100 nM
  cell viability: 116 ± 7.2%
HL-60 [12]; 10 µM, co-treatment: pictilisib 100 nM
  cell viability: 105 ± 9.1%
BV-173 [13]; 1 nM
  cell viability: 91.7%
BV-173 [13]; 10 nM
  cell viability: 100%
BV-173 [13]; 100 nM
  cell viability: 101%
BV-173 [13]; 1000 nM
  cell viability: 97.7%
BV-173 [13]; 10000 nM
  cell viability: 92.7%
HEL [14]; 1 nM
  cell viability: 111%
HEL [14]; 10 nM
  cell viability: 98%
HEL [14]; 100 nM
  cell viability: 113%
HEL [14]; 1000 nM
  cell viability: 108%
HEL [14]; 10000 nM
  cell viability: 109%
HL-60 [15]; 1 nM
  cell viability: 108%
HL-60 [15]; 10 nM
  cell viability: 101%
HL-60 [15]; 100 nM
  cell viability: 115%
HL-60 [15]; 1000 nM
  cell viability: 95.6%
HL-60 [15]; 10000 nM
  cell viability: 104%
K-562 [16]; 1 nM
  cell viability: 85.6%
K-562 [16]; 10 nM
  cell viability: 103%
K-562 [16]; 100 nM
  cell viability: 108%
K-562 [16]; 1000 nM
  cell viability: 89.4%
K-562 [16]; 10000 nM
  cell viability: 97.7%
KCL-22 [17]; 1 nM
  cell viability: 106%
KCL-22 [17]; 10 nM
  cell viability: 97.7%
KCL-22 [17]; 100 nM
  cell viability: 104%
KCL-22 [17]; 1000 nM
  cell viability: 102%
KCL-22 [17]; 10000 nM
  cell viability: 79.7%
KU-812 [18]; 1 nM
  cell viability: 97.8%
KU-812 [18]; 10 nM
  cell viability: 107%
KU-812 [18]; 100 nM
  cell viability: 92.1%
KU-812 [18]; 1000 nM
  cell viability: 96.7%
KU-812 [18]; 10000 nM
  cell viability: 122%
LAMA-84 [19]; 1 nM
  cell viability: 109%
LAMA-84 [19]; 10 nM
  cell viability: 105%
LAMA-84 [19]; 100 nM
  cell viability: 110%
LAMA-84 [19]; 1000 nM
  cell viability: 104%
LAMA-84 [19]; 10000 nM
  cell viability: 108%
ML-2 [20]; 1 nM
  cell viability: 91.8%
ML-2 [20]; 10 nM
  cell viability: 101%
ML-2 [20]; 100 nM
  cell viability: 107%
ML-2 [20]; 1000 nM
  cell viability: 105%
ML-2 [20]; 10000 nM
  cell viability: 104%
Mono-Mac-6 [21]; 1 nM
  cell viability: 96%
Mono-Mac-6 [21]; 10 nM
  cell viability: 98%
Mono-Mac-6 [21]; 100 nM
  cell viability: 96.7%
Mono-Mac-6 [21]; 1000 nM
  cell viability: 91.3%
Mono-Mac-6 [21]; 10000 nM
  cell viability: 70.2%
NOMO-1 [22]; 1 nM
  cell viability: 108%
NOMO-1 [22]; 10 nM
  cell viability: 97.1%
NOMO-1 [22]; 100 nM
  cell viability: 97.9%
NOMO-1 [22]; 1000 nM
  cell viability: 106%
NOMO-1 [22]; 10000 nM
  cell viability: 99.5%
SHI-1 [23]; 1 nM
  cell viability: 105%
SHI-1 [23]; 10 nM
  cell viability: 101%
SHI-1 [23]; 100 nM
  cell viability: 103%
SHI-1 [23]; 1000 nM
  cell viability: 106%
SHI-1 [23]; 10000 nM
  cell viability: 89.8%
HL-60 [24]; co-treatment: AZD3965 100 nM
  area under dose-response curve: < 0.0301
HL-60 [24]; co-treatment: DMSO vehicle
  area under dose-response curve: < 0.0301
HL-60 [24]; co-treatment: GSK2194069 100 nM
  area under dose-response curve: < 0.0301
HL-60 [24]; co-treatment: pictilisib 100 nM
  area under dose-response curve: < 0.0301
